In patent publication US20240409963A1, “Use of Inhibitors to Increase Efficiency of Crispr/CAS Insertions” (AstraZeneca AB, priority 2021, published 2024):

System: HEK293T cells
Experiment: Different DNAPK inhibitors on precise gene editing outcomes, Example 8;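 also: cells transfected with plasmids for SpCas9-EGFP, editing outcomes quantified from genomic DNA by deep targeted amplicon sequencing with bioinformatic analysis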
Conditions: for HDR to indel ratio / Precise KI fold increase: gINS + ssDNA; for Precise KI fold increase: vs DMSO; for MMEJ indels Mean / NHEJ indels Mean / Total editing Mean: sgRNA CD34 (gINS) + ssDNA, 70 hours post-transfection
Method: Cells allowed to attach for 12 hours before transfection. Cells were transfected with DNA plasmids encoding for SpCas9-EGFP and a sgRNAs targeting CD34 (gINS) in the presence of single-stranded oligonucleotide donor (ssDNA). 70 hours post-transfection cell confluence and EGFP-based transfection efficiencies were determined with the Incucyte S3. Genomic DNA was extracted and editing outcome was analysed through deep-targeted amplicon sequencing using bioinformatic analysis.

Row | Compound | HDR to indel ratio (DNAPK inhibitor 0.3125 μM) | Precise KI fold increase (DNAPK inhibitor 0.3125 μM) | HDR to indel ratio (DNAPK inhibitor 0.625 μM) | Precise KI fold increase (DNAPK inhibitor 0.625 μM) | HDR to indel ratio (DNAPK inhibitor 1.25 μM) | Precise KI fold increase (DNAPK inhibitor 1.25 μM) | HDR to indel ratio (DNAPK inhibitor 5 μM) | Precise KI fold increase (DNAPK inhibitor 5 μM) | HDR to indel ratio (DNAPK inhibitor 10 μM) | Precise KI fold increase (DNAPK inhibitor 10 μM) | MMEJ indels Mean (DNAPK inhibitor 0.3125 μM) | NHEJ indels Mean (DNAPK inhibitor 0.3125 μM) | Total editing Mean (DNAPK inhibitor 0.3125 μM) | MMEJ indels Mean (DNAPK inhibitor 0.625 μM) | NHEJ indels Mean (DNAPK inhibitor 0.625 μM) | Total editing Mean (DNAPK inhibitor 0.625 μM) | MMEJ indels Mean (DNAPK inhibitor 1.25 μM) | NHEJ indels Mean (DNAPK inhibitor 1.25 μM) | Total editing Mean (DNAPK inhibitor 1.25 μM) | MMEJ indels Mean (DNAPK inhibitor 5 μM) | further results
1 | Cc1nccnc1C(O)c1ccc(F)c(-c2ncnc3cc(N4CCOCC4)ccc23)c1 (centres unmarked) [TLR1, (4-fluoro-3-(7-morpholinoquinazolin-4-yl)phenyl) (3-methylpyrazin-2-yl) methanol] | 0.4 | 1.9 fold | 0.7 | 2.4 fold | 0.9 | 2.6 fold | 1.4 | 2.5 fold | 1.5 | 2.0 fold | 15.4 | 21.6 | 66.4 | 17.3 | 12.3 | 63.2 | 16.9 | 6.9 | 58.1 | 11.9 | NHEJ indels Mean (DNAPK inhibitor 5 μM): 1.7; Total editing Mean (DNAPK inhibitor 5 μM): 44.5; MMEJ indels Mean (DNAPK inhibitor 10 μM): 9.2; NHEJ indels Mean (DNAPK inhibitor 10 μM): 1.3; Total editing Mean (DNAPK inhibitor 10 μM): 34.1
2 | [2H]c1nc(C)nc([2H])c1-c1cc(NC[C@@H](C)c2cccc3c(C(=O)NC)ccnc23)ncn1 | 0.3 | 1.5 fold | 0.5 | 2.2 fold | 0.7 | 2.4 fold | 1.1 | 2.8 fold | 1.1 | 2.7 fold | 15.8 | 25.0 | 66.8 | 17.8 | 16.7 | 66.8 | 18.1 | 9.0 | 60.4 | 17.1 | NHEJ indels Mean (DNAPK inhibitor 5 μM): 2.4; Total editing Mean (DNAPK inhibitor 5 μM): 55.0; MMEJ indels Mean (DNAPK inhibitor 10 μM): 17.3; NHEJ indels Mean (DNAPK inhibitor 10 μM): 2.0; Total editing Mean (DNAPK inhibitor 10 μM): 53.4
